The values below come from patent US6136831A, “Pyrazole derivatives and COX inhibitors containing them” (Grelan Pharmaceutical Co., Ltd., priority 1997, dated 2000).

The target of one assay is T1, COX-2 (Ovis aries, UniProt P79208).
T1 construct: purchased Cayman Chemical Co
T1 sequence (P79208 17-603): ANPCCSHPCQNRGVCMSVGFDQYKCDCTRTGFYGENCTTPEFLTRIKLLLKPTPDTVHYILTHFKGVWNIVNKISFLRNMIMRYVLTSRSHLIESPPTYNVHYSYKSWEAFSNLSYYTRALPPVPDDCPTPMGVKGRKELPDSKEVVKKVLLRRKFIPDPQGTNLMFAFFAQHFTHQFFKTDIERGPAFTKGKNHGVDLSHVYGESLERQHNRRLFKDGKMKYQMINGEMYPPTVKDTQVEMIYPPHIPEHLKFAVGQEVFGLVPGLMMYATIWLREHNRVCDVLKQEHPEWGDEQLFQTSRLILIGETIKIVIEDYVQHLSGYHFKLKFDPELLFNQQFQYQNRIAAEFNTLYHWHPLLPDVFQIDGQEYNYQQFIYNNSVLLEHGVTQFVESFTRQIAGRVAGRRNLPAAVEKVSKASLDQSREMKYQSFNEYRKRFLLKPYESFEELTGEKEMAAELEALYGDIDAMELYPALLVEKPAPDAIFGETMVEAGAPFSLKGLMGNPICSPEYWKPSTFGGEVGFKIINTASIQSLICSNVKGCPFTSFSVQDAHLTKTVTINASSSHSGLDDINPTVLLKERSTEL
The assay is described as follows: Inhibitory Activity on COX-2 (Assay Example 5). Format: biochemical. As to conditions: Table 4; for IC50: read-out: COX Inhibiting Activity IC50, COX-2.

The next assay addresses T2, COX-1 (Ovis aries, UniProt P05979).
T2 construct: purchased Cayman Chemical Co
T2 sequence (P05979 25-600): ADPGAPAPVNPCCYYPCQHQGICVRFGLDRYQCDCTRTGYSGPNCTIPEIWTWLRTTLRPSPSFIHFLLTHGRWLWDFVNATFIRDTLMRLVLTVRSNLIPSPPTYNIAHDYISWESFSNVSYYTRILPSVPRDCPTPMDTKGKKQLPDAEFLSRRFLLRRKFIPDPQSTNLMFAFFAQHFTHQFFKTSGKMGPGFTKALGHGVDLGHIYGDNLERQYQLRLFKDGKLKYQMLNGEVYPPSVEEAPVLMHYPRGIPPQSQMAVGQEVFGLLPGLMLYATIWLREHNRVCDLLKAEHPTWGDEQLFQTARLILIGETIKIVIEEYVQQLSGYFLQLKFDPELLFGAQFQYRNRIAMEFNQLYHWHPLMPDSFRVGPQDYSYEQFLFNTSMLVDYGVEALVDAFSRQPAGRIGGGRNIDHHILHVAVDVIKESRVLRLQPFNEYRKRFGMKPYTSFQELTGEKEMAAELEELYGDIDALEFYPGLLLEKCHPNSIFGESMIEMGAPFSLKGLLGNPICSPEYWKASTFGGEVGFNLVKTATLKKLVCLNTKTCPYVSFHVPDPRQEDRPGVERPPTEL
The assay can be described thus: Inhibitory Activity on COX-1 (Assay Example 5). Format: biochemical. As to conditions: Table 4; read-out: COX Inhibiting Activity IC50, COX-1.

Assay [1] relates to rat adjuvant-induced arthritis. The assay is described as follows: Inhibitory Action on Adjuvant Arthritis (1) (Assay Example 2). Format: in vivo, male Fisher rats. As to conditions: oral 5 mg/kg.
Description: Dry Mycobacterium butyricum killed organisms (Difco) were suspended in liquid paraffin to make the concentration 1% and the resulting suspension used as an adjuvant. The adjuvant (50 μl) was subplantarly injected to the right hind paw of male Fisher rats (5 to 6 animals per group) to raise arthritis. Each test compound was suspended in a 0.5% aqueous sodium carboxymethylcellulose (CMC-Na) solution and orally administered to the rats at a dose of 5 mg/kg on days 0, 3, 7, 10, 14, 17 and 20 (7 times in total) after the arthritis induction. On the 21st disease day the rats were measured for their body weight and the edema of their right and left hind paws. Simultaneously, systemic inflammatory states were scored. In addition, each of their spleen and thymus was taken out by excision to measure their wet weight and their relative weight per 100 g body weight was calculated.
Assay [2] deals with adjuvant arthritis in rats. The assay is described as follows: Inhibitory Action on Adjuvant Arthritis (2) (Assay Example 6). Format: in vivo, male F344/Du (Fisher) rats. As to conditions: oral 1 mg/5 ml/kg daily, 17 days; for % Inhibition against Reduction of Gain in Body Weight / Edema Inhibition (%) Left Hind Paw (Non-inflamed Paw) / Edema Inhibition (%) Right Hind Paw (Inflamed Paw): measured next day; for % Inhibition against Change in Relative Weight, Spleen / % Inhibition against Change in Relative Weight, Thymus: relative weight per 100 g body weight; for Inflammation Score Inhibition (%): scored next day. The method, then: A 1% dry Mycobacterium tuberculosis H37 RA killed organism suspension in liquid paraffin was employed as an adjuvant. The adjuvant suspension (50 μl) was subplantarly administered to the right hind paw of male F344/Du (Fisher) rats (5 to 6 animals per group) to raise arthritis. […] The next day after the final administration, the rats were measured for their body weight and the edema of their right and left hind paws. Simultaneously, systemic inflammatory states were scored. In addition, each of their spleen and thymus was taken out by excision to measure their wet weight and their relative weight per 100 g body weight was determined.

Setting [3] is: 7 times, relative weight per 100 g body weight, day 21.
Setting [4] is: days 0, 3, 7, 10, 14, 17, 20, measured day 21.

Bounds are passed on as bounds.

What is called IC50 is the concentration that inhibits the measured activity by half. On to `CS(=O)(=O)c1ccc(-n2nc(C(F)(F)F)cc2-c2nc3cccc(F)c3s2)cc1` [Example 17, 7-fluoro-2-[1-(4-methylsulfonylphenyl)-3-trifluoromethyl-1H-pyrazol-5-yl]benzothiazole], for which, on COX-2, the “COX-1/COX-2 (ratio of IC50 values)” value is recorded as greater than 625 and the IC50 came to 160 nM. For the same molecule, the concentration for half-maximal inhibition (IC50) at COX-1 was greater than 100000 nM.
`CS(=O)(=O)c1ccc(-n2nc(C(F)(F)F)cc2-c2nc3cc(F)ccc3s2)cc1` [Example 4, 5-Fluoro-2-[1-(4-methylsulfonylphenyl)-3-trifluoromethyl-1H-pyrazol-5-yl]benzothiazole]: in assay [1] (setting [3]), the “% Inhibition against Change in Relative Weight, Spleen” value turned out to be 2.9% and the “% Inhibition against Change in Relative Weight, Thymus” value was found to be 148.9%. In addition, in assay [1] (setting [4]), the “% Inhibition against Reduction of Gain in Body Weight” value (shortened to “% Inhibition against Reduction”) is listed as 78.7%, the “Edema Inhibition (%) Left Hind Paw (Non-inflamed Paw)” value amounted to 91% and the “Edema Inhibition (%) Right Hind Paw (Inflamed Paw)” value (from here on “Edema Inhibition (%) Right Hind Paw”) is 83%. For the same molecule, the “Inflammation Score Inhibition (%)” value in assay [1] (days 0, 3, 7, 10, 14, 17, 20, scored day 21) is 100%.
Regarding `Cc1cccc2nc(-c3cc(C(F)F)nn3-c3ccc(S(N)(=O)=O)cc3)sc12` [Example 31, 4-[3-Difluoromethyl-5-(7-methylbenzothiazol-2-yl)-1H-pyrazol-1-yl]benzenesulfonamide], on COX-2, the “COX-1/COX-2 (ratio of IC50 values)” value is greater than 417. The IC50 was 240 nM on COX-2 and greater than 100000 nM at COX-1.
The like results for `CS(=O)(=O)c1ccc(-n2nc(C(F)F)cc2-c2nc3ccc(F)cc3s2)cc1` [Example 22, 6-Fluoro-2-[1-(4-methylsulfonylphenyl)-3-difluoromethyl-1H-pyrazol-5-yl]benzothiazole] were, in that order, greater than 2000, 50 nM and greater than 100000 nM.
As to `NS(=O)(=O)c1ccc(-n2nc(C(F)F)cc2-c2nc3ccccc3s2)cc1` [Example 21, 4-[5-(Benzothiazol-2-yl)-3-difluoromethyl-1H-pyrazol-1-yl]-benzenesulfonamide], the “COX-1/COX-2 (ratio of IC50 values)” value on COX-2 stood at 386. In addition, the IC50 stood at 57 nM at COX-2 and 22000 nM at COX-1.
On to `Cc1ccc2nc(-c3cc(C(F)(F)C(F)(F)F)nn3-c3ccc(S(N)(=O)=O)cc3)sc2c1` [Example 33, 4-[5-(6-Methylbenzothiazol-2-yl)-3-pentafluoroethyl-1H-pyrazol-5-yl]benzenesulfonamide], for which the “COX-1/COX-2 (ratio of IC50 values)” value on COX-2 is reported as greater than 769. Moreover, the IC50 was 130 nM at COX-2 and greater than 100000 nM at COX-1.
On to `Cc1ccc2nc(-c3cc(C(F)(F)C(F)(F)F)nn3-c3ccc(S(C)(=O)=O)cc3)sc2c1` [Example 32, 6-Methyl-2-[1-(4-methylsulfonylphenyl)-3-pentafluoroethyl-1H-pyrazol-5-yl]benzothiazole], for which, on COX-2, the “COX-1/COX-2 (ratio of IC50 values)” value was greater than 270 and the IC50 amounted to 370 nM. The concentration for half-maximal inhibition (IC50) on COX-1 was greater than 100000 nM.
For `NS(=O)(=O)c1ccc(-n2nc(C(F)F)cc2-c2nc3ccc(Cl)cc3s2)cc1` [Example 24, 4-[5-(6-Chlorobenzothiazol-2-yl)-3-difluoromethyl-1H-pyrazol-1-yl]benzenesulfonamide], on COX-2, the “COX-1/COX-2 (ratio of IC50 values)” value stood at 21 and the 50% inhibitory concentration (IC50) came to 86 nM. In addition, the IC50 on COX-1 was found to be 1800 nM.
As to `NS(=O)(=O)c1ccc(-n2nc(C(F)F)cc2-c2nc3cccc(F)c3s2)cc1` [Example 29, 4-[5-(7-Fluorobenzothiazol-2-yl)-3-difluoromethyl-1H-pyrazol-1-yl]benzenesulfonamide], on COX-2, the “COX-1/COX-2 (ratio of IC50 values)” value is reported as greater than 8333 and the concentration for half-maximal inhibition (IC50) is 12 nM. In addition, in assay [2], the “% Inhibition against Reduction” value came to 73%; the “Edema Inhibition (%) Left Hind Paw (Non-inflamed Paw)” value was 124%; the “Edema Inhibition (%) Right Hind Paw” value is recorded as 82%; the “% Inhibition against Change in Relative Weight, Spleen” value is given as 25%. In assay [2], the “% Inhibition against Change in Relative Weight, Thymus” value was determined as 80% and the “Inflammation Score Inhibition (%)” value is recorded as 86%. On COX-1, the IC50 was greater than 100000 nM.
As to `NS(=O)(=O)c1ccc(-n2nc(C(F)(F)F)cc2-c2nc3ccccc3s2)cc1` [Example 14, 4-[5-(Benzothiazol-2-yl)-3-trifluoromethyl-1H-pyrazol-1-yl]-benzenesulfonamide], on COX-2, the “COX-1/COX-2 (ratio of IC50 values)” value is greater than 1786 and the IC50 is 56 nM. Besides, the IC50 at COX-1 was greater than 100000 nM.
For the molecule `NS(=O)(=O)c1ccc(-n2nc(C(F)(F)F)cc2-c2nc3cccc(F)c3s2)cc1` [Example 18, 4-[5-(7-Fluorobenzothiazol-2-yl)-3-trifluoromethyl-1H-pyrazol-1-yl]benzenesulfonamide], at COX-2, the “COX-1/COX-2 (ratio of IC50 values)” value is recorded as greater than 625 and the IC50 came to 160 nM. For the same molecule, in assay [2], the “% Inhibition against Reduction” value is reported as 75%; the “Edema Inhibition (%) Left Hind Paw (Non-inflamed Paw)” value is reported as 116%; the “Edema Inhibition (%) Right Hind Paw” value is reported as 84%; the “% Inhibition against Change in Relative Weight, Spleen” value was 48%. For the same molecule, in assay [2], the “% Inhibition against Change in Relative Weight, Thymus” value came to 48% and the “Inflammation Score Inhibition (%)” value came to 91%. At COX-1, the IC50 is greater than 100000 nM.
As to `NS(=O)(=O)c1ccc(-n2nc(C(F)F)cc2-c2nc3ccc(F)cc3s2)cc1` [Example 23, 4-[5-(6-Fluorobenzothiazol-2-yl)-3-difluoromethyl-1H-pyrazol-1-yl]benzenesulfonamide], the “COX-1/COX-2 (ratio of IC50 values)” value at COX-2 was greater than 909. Also, the IC50 at COX-2 was 110 nM; at COX-1 it was greater than 100000 nM.
The like results for `Cc1ccc2nc(-c3cc(C(F)(F)F)nn3-c3ccc(S(N)(=O)=O)cc3)sc2c1` [Example 16, 4-[5-(6-Methylbenzothiazol-2-yl)-3-trifluoromethyl-1H-pyrazol-5-yl]benzenesulfonamide] were, in that order, greater than 172, 580 nM and greater than 100000 nM.
As to `CS(=O)(=O)c1ccc(-n2nc(C(F)F)cc2-c2nc3cccc(F)c3s2)cc1` [Example 28, 7-Fluoro-2-[1-(4-methylsulfonylphenyl)-3-difluoromethyl-1H-pyrazol-5-yl]benzothiazole], at COX-2, the “COX-1/COX-2 (ratio of IC50 values)” value is on record as greater than 1190 and the half-inhibitory concentration (IC50) was 84 nM. For the same molecule, the half-maximal inhibitory concentration (IC50) on COX-1 is greater than 100000 nM.
For `Cc1ccc2nc(-c3cc(C(F)F)nn3-c3ccc(S(C)(=O)=O)cc3)sc2c1` [Example 26, 6-Methyl-2-[1-(4-methylsulfonylphenyl)-3-difluoromethyl-1H-pyrazol-5-yl]benzothiazole], on COX-2, the “COX-1/COX-2 (ratio of IC50 values)” value is greater than 769 and the half-inhibitory concentration (IC50) was 130 nM. For the same molecule, at COX-1, the IC50 is greater than 100000 nM.
The like results for `Cc1ccc2nc(-c3cc(C(F)F)nn3-c3ccc(S(N)(=O)=O)cc3)sc2c1` [Example 27] were, in that order, 623, 53 nM and 33000 nM.
In the same order, the values of `COc1ccc2nc(-c3cc(C(F)F)nn3-c3ccc(S(N)(=O)=O)cc3)sc2c1` [Example 25, 4-[3-Difluoromethyl-5-(6-methoxybenzothiazol-2-yl)-1H-pyrazol-5-yl]benzenesulfonamide] are greater than 250, 400 nM and greater than 100000 nM.
The like results for `NS(=O)(=O)c1ccc(-n2nc(C(F)F)cc2-c2nc3c(F)cccc3s2)cc1` [Example 41] were, in that order, greater than 417, 240 nM and greater than 100000 nM.
